Earlier results on one compound are cited in US20100215736A1, “ORAL DOSAGE FORM PROVIDING FAST ADSORPTION OF DRUG” (NOVARTIS AG, priority 2007, published 2010).

For this series the following is noted: in vivo.

Each structure is given as a SMILES string.

Consider `CC(C)Cc1ccc(C(C)C(=O)[O-])cc1.O.O.[Na+]` (stereo not shown) [ibuprofen sodium dihydrate salt], for which the tmax was 36 min.
